In ChEMBL document CHEMBL4425097, “Adrenomedullin 2.0: Adjusting Key Levers for Metabolic Stability” (J Med Chem, 2016):
Activity calls are given as the source filed them. The calls are words filed in the database; no cut-off is given here. Where a SMILES comes first, the peptide text is derived from it. Bridges are numbered along the chain shown (N, C = ends).

What follows are compounds tested against Adrenomedullin receptor AM1; CALCRL/RAMP2 (Homo sapiens) (UniProt O60895+Q16602) (assay: Agonist activity at eYFP-tagged CLR/eCFP-tagged RAMP2-derived AM1 receptor (unknown origin) expressed in HEK293 cells assessed as cAMP accumulation after 3 hrs by ONE-Glo substrate-based luminescence assay).
Assay type: functional, cell-based

Activity, inactive:
CC[C@H](C)[C@H](NC(=O)[C@H](CCC(N)=O)NC(=O)[C@H](Cc1cnc[nH]1)NC(=O)[C@H](C)NC(=O)[C@H](CC(C)C)NC(=O)[C@H](CCCCN)NC(=O)[C@H](CCC(N)=O)NC(=O)[C@@H](NC(=O)[C@@H](NC(=O)[C@@H]1CSSC[C@H](NC(=O)CNC(=O)CN)C(=O)N[C@@H](CCCNC(=N)N)C(=O)N[C@@H](Cc2ccccc2)C(=O)NCC(=O)N[C@@H]([C@@H](C)O)C(=O)N1)[C@@H](C)O)C(C)C)C(=O)N[C@@H](Cc1ccc(O)cc1)C(=O)N[C@@H](CCC(N)=O)C(=O)N[C@@H](Cc1ccccc1)C(=O)N[C@H](C(=O)N[C@@H](CC(=O)O)C(=O)N[C@@H](CCCCN)C(=O)N[C@@H](CC(=O)O)C(=O)N[C@@H](CCCCN)C(=O)N[C@@H](CC(=O)O)C(=O)N[C@@H](CC(N)=O)C(=O)N[C@H](C(=O)N[C@@H](C)C(=O)N1CCC[C@H]1C(=O)N[C@@H](CCCNC(=N)N)C(=O)O)C(C)C)[C@@H](C)O (H-GGCRFGTCTVQKLAHQIYQFTDKDKDNVAPR-OH; disulfide 3-8)
CC[C@H](C)[C@H](NC(=O)[C@H](CCC(N)=O)NC(=O)[C@H](Cc1cnc[nH]1)NC(=O)[C@H](C)NC(=O)[C@H](CC(C)C)NC(=O)[C@H](CCCCN)NC(=O)[C@H](CCC(N)=O)NC(=O)[C@@H](NC(=O)[C@@H](NC(=O)[C@@H]1CSSC[C@H](NC(=O)CNC(=O)CN)C(=O)N[C@@H](CCCNC(=N)N)C(=O)N[C@@H](Cc2ccccc2)C(=O)NCC(=O)N[C@@H]([C@@H](C)O)C(=O)N1)[C@@H](C)O)C(C)C)C(=O)N[C@@H](Cc1ccc(O)cc1)C(=O)N[C@@H](CCC(N)=O)C(=O)N[C@@H](Cc1ccccc1)C(=O)N[C@H](C(=O)N[C@@H](CC(=O)O)C(=O)N[C@@H](CCCCN)C(=O)N[C@@H](CC(=O)O)C(=O)N[C@@H](CCCCN)C(=O)N[C@@H](CC(=O)O)C(=O)N[C@@H](CC(N)=O)C(=O)N[C@H](C(=O)N[C@@H](C)C(=O)N1CCC[C@H]1C(=O)N[C@@H](CCCNC(=N)N)C(=O)N[C@@H](CO)C(=O)O)C(C)C)[C@@H](C)O (H-GGCRFGTCTVQKLAHQIYQFTDKDKDNVAPRS-OH; disulfide 3-8)
CC[C@H](C)[C@H](NC(=O)[C@H](CCC(N)=O)NC(=O)[C@H](Cc1cnc[nH]1)NC(=O)[C@H](C)NC(=O)[C@H](CC(C)C)NC(=O)[C@H](CCCCN)NC(=O)[C@H](CCC(N)=O)NC(=O)[C@@H](NC(=O)[C@@H](N)[C@@H](C)O)C(C)C)C(=O)N[C@@H](Cc1ccc(O)cc1)C(=O)N[C@@H](CCC(N)=O)C(=O)N[C@@H](Cc1ccccc1)C(=O)N[C@H](C(=O)N[C@@H](CC(=O)O)C(=O)N[C@@H](CCCCN)C(=O)N[C@@H](CC(=O)O)C(=O)N[C@@H](CCCCN)C(=O)N[C@@H](CC(=O)O)C(=O)N[C@@H](CC(N)=O)C(=O)N[C@H](C(=O)N[C@@H](C)C(=O)N1CCC[C@H]1C(=O)N[C@@H](CCCNC(=N)N)C(=O)N[C@@H](CO)C(=O)N[C@@H](CCCCN)C(=O)N[C@H](C(=O)N[C@@H](CO)C(=O)N1CCC[C@H]1C(=O)N[C@@H](CCC(N)=O)C(=O)NCC(=O)N[C@@H](Cc1ccc(O)cc1)C(N)=O)[C@@H](C)CC)C(C)C)[C@@H](C)O
C[C@@H](O)[C@@H]1NC(=O)CNC(=O)[C@H](Cc2ccccc2)NC(=O)[C@H](CCCNC(=N)N)NC(=O)[C@@H](NC(=O)CNC(=O)CN)CSSC[C@@H](C(=O)O)NC1=O (H-GGCRFGTC-OH; disulfide 3-8)
